In patent US20220054493A1, “INHIBITORS OF NGAL PROTEIN” (INSERM (INSTITUT NATIONAL DE LA SANTÉ ET DE LA RECHERCHE …, priority 2019, published 2022):

Legend:
Aqueous solubility = assay type: physicochemical
Protocol: (§1) Two specific toxicity assays have been performed to assess hepatoxicity and cardiotoxicity. Hepatotoxicity was evaluated in isolated hepatocytes from swiss mice and determined by the MTT colorimetric assay. Cardiotoxicity was evaluated using the commercially available Predictor hERG fluorescence polarization kit (Thermo Fisher Scientific). Several ADME assays have been carried out on the compounds generated throughout the project. The following experiments were undertaken: Stability in human microsomes, binding to human plasma protein, and CYP3A4 inhibition assay (Vivid CYP3A4 assay, Thermo Fisher Scientific). Physico-chemical properties were also assessed such as aqueous solubility and chemical stability.

human microsomes = experiment: Stability in human microsomes; assay type: in vitro ADME
Protocol: as §1

[1] = test system: Myocardial Infarction Model; experiment: Profibrotic, IL6 and inflammatory target tissue content in the myocardial infarction model; assay type: in vivo, mice; settings: MI model, 100 mg/kg/day in food admix, three months
Protocol: Total protein aliquots of 20 μg were prepared from cardiac homogenates and electrophoresed on SDS polyacrylamide gels and transferred to Hybond-c Extra nitrocellulose membranes (Amersham Biosciences). Membranes were incubated with primary antibodies for: NGAL (Abcam; dilution 1:500), Collagen type III (Santa Cruz; dilution 1:500), a-SMA (Sigma; dilution 1:1000), CTGF Abcam; dilution 1:500), GDF-15 (Abcam; dilution 1:500), fibronectin (Millipore, 1:500), Galectin-3 (Thermo, 1:1000), Cardiotrophin-1 (Abcam, 1:500), osteopontin (Santa Cruz, 1:1000), cd3 (Abcam, 1:500), cd68 (Abcam, 1:500), cd80 (Santa Cruz, 1:500) and β-actin (Sigma; dilution 1:1000) as a loading control. […] After densitometric analyses, optical density values were expressed as arbitrary units. Results are expressed as an n-fold increase over the values of the control group in densitometric arbitrary units. NGAL, IL6 and collagen type I concentrations were measured in cardiac tissue and cell supernatants, respectively, by ELISA according to the manufacturer's instructions (R&D Systems).

human plasma protein = experiment: Binding to human plasma protein; assay type: in vitro ADME
Protocol: as §1

[2] = Binding to human plasma protein; assay type: in vitro ADME; settings: human, human plasma protein; read-out: hPPB (converted)
Protocol: as §1

NGAL = target: T1, NGAL (Homo sapiens, UniProt P80188); experiment: NGAL-induced IL6 secretion in human cardiac fibroblasts (ELISA); assay type: cell-based; settings: NGAL 10 ng/ml, FIGS. 1 and 2 panel A
T1 construct: purchased R&D Systems
T1 sequence (P80188 21-198): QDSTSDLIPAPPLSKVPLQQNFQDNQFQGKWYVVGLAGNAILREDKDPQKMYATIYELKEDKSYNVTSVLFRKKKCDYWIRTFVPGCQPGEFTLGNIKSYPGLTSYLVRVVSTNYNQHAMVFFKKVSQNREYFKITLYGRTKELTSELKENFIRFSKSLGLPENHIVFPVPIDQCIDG
Protocol: (§2) Cell Culture Human cardiac fibroblasts (primary culture) were obtained from Promocell and maintained in medium (Fibroblast Media 3). Cells were cultured according to the manufacturer's instructions and used between passages 5 and 7. Cells were stimulated with aldosterone (10^-8 M, Sigma) or recombinant hNGAL (500 ng/mL, R&D Systems) for 24 h for protein analysis. Mouse kidney fibroblasts (MKF), were isolated from Wild Type (WT) mice. Briefly, mice 7 to 8 weeks were sacrificed by cervical dislocation and kidneys were cleaned and rinsed in cold DPBS (Dulbecco's Phosphate-Buffered Saline). The renal cortex was minced and incubated in Dulbecco's modified eagle medium/Nutrient mixture F-12 (DMEM/F12, Sigma) containing 1 mg/mL collagenase A (Roche) during 25 minutes at 37° C. The digestion was inactivated by adding culture medium (DMEM/F12+10% FBS) then the cell suspension was passed through a 100-μm cell strainer. After centrifugation, the pellet (containing MKF) was diluted with culture medium then plated in 75 cm^2 culture flask. After 24 hours MKF were washed with DPBS before replacement of fresh culture medium. Thereafter, culture medium was changed every 48 hours. Once 70-80% confluent, MKF were trypsinized and plated in 12 or 6-well plates. For experimental use, MKF were starved with culture medium containing only 3% FBS. MKF were treated with mNGAL (500 ng/mL, R&D Systems) for 24 h for gene expression analysis.
NGAL, IL6 and collagen type I concentrations were measured in cardiac tissue and cell supernatants, respectively, by ELISA according to the manufacturer's instructions (R&D Systems).
The inhibitory activity of the compounds was evaluated on the NGAL-induced IL6 secretion (NGAL 10 ng/ml) in human cardiac fibroblasts.
Inhibitory activities of 23 second generation compounds derived from GPZ614741 and GPZ058225 were evaluated on the NGAL-induced IL6 secretion (NGAL 10 ng/ml) in human cardiac fibroblasts.

Chemical stability = assay type: physicochemical
Protocol: as §1

recombinant murine NGAL = target: T2, recombinant murine NGAL (Mus musculus, UniProt P11672); experiment: NGAL-induced profibrotic and proinflammatory gene expression in renal fibroblasts; assay type: cell-based; settings: renal fibroblast cells stimulated with recombinant murine NGAL
T2 construct: purchased R&D Systems
T2 sequence (P11672 21-200): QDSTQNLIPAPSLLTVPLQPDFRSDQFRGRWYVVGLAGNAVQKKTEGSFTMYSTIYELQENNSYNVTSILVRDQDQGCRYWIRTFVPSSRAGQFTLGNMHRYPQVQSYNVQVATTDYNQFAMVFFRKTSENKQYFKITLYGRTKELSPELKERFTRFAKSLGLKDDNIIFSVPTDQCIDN
Protocol: as §2, with “After 24 hours MKF were washed with DPBS before replacement of fresh culture medium. Thereafter, culture medium was changed every 48 hours. Once 70-80% confluent, MKF were trypsinized and plated in 12 or 6-well plates. For experimental use, MKF were starved with culture medium containing only 3% FBS. MKF were treated with mNGAL (500 ng/mL, R&D Systems) for 24 h for gene expression analysis.” left out
Frozen tissues (kidneys, heart) were homogenized in TRIzol (Life Technologies, 15596018) using FastPrep beads (MP-Bio, 6913-100). cDNAs were generated using the Superscript II reverse transcriptase kit (Invitrogen, 18064022), and qPCR was performed as previously described. Briefly, transcript levels were analysed in a CFX396 apparatus (Biorad). […]

hERG channel = target: T3, hERG channel (Homo sapiens, UniProt Q12809); experiment: Cardiotoxicity, Predictor hERG fluorescence polarization kit; assay type: binding
T3 construct: purchased Thermo Fisher Scientific
T3 sequence (Q12809 whole entry): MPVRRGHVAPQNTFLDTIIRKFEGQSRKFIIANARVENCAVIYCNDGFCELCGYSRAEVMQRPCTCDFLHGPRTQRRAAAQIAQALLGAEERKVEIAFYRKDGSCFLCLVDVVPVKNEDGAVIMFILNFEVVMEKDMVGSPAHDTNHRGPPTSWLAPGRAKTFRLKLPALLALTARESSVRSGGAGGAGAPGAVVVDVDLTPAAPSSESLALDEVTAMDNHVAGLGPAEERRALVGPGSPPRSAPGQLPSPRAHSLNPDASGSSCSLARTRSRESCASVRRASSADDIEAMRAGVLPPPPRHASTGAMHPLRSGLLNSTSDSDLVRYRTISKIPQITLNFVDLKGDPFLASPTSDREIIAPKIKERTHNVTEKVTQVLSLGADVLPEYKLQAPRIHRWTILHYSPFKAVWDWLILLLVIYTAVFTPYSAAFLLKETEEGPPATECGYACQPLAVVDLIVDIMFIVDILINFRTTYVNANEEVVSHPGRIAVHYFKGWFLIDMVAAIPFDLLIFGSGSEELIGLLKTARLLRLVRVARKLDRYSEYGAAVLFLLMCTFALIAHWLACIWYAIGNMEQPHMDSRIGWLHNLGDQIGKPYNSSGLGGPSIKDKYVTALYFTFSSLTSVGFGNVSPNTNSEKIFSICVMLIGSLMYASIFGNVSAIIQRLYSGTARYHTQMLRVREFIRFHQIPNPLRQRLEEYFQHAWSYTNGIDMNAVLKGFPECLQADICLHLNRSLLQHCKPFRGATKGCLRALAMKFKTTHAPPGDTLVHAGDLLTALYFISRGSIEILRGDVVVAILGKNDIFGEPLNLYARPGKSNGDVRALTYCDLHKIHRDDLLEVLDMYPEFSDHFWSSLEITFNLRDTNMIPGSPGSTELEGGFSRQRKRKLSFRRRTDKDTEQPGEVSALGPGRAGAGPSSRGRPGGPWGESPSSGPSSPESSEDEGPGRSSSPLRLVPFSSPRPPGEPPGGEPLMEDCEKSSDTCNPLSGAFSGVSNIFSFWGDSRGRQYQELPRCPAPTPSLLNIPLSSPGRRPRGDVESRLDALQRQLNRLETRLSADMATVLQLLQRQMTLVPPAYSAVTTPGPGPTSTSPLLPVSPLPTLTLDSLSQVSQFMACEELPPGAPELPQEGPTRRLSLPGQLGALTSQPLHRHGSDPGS
Protocol: as §1

Compound: CC(=O)c1cccc(S(=O)(=O)NCc2ccccc2-n2cccn2)c1 [GPZ614741]
- Aquous solubility (Aqueous solubility): 100%
- solubility in aqueous buffers (solubility test) (Aqueous solubility): perfectly soluble
- microsomes degradation, left after 2 h (human microsomes; after 2 h): 2.2%
- Micro Stability (human microsomes; human microsomes): 2.19%
- aSMA tissue content ([1]; FIG. 10 panel A): significant prevention of up regulation
- GDF15 tissue content ([1]; FIG. 10 panel B): significant prevention of up regulation
- CTGF tissue content ([1]; FIG. 10 panel C): significant prevention of up regulation
- Col1 tissue content ([1]; FIG. 10 panel D): significant prevention of up regulation
- IL6 tissue content ([1]; FIG. 11 panel A): significant prevention of up regulation
- CD68 tissue content ([1]; FIG. 12 panel C): significant prevention of up regulation
- CD 80 tissue content ([1]; FIG. 12 panel D): significant prevention of up regulation
- CD86 tissue content ([1]; FIG. 12 panel E): significant prevention of up regulation
- CD3 tissue content ([1]; FIG. 12 panels A, B): significant prevention of up regulation
- PPB (binding to plasma proteins) (human plasma protein): low
- fraction unbound [2]: 0.288
- NGAL-induced IL6 secretion (NGAL): inhibited
- Chemical Stability (Chemical stability): 103%
- stability to acidic pH / digestive content (Chemical stability): fully stable
- NGAL-induction of inflammatory (IL6, MCP1) gene expression (recombinant murine NGAL; FIG. 16): inhibited
- NGAL-induction of profibrotic (Collagen1, fibronectin, aSMA) gene expression (recombinant murine NGAL; FIG. 16A): inhibited
- cardiotoxicity (hERG predictor assay) (hERG channel): no toxicity
- Cardiotoxicity % (100 = no toxicity) (hERG channel; 100 = no toxicity): 101.76 ± 2.48%
